{
  "source": "patent EP0580968B1",
  "about": "“Vitamin D3 fluorinated analogs” (F. HOFFMANN-LA ROCHE AG, priority 1992, dated 1994)",
  "system": "HL-60 tumor cell line",
  "test": "HL-60 Differentiation Assay (NBT reduction)",
  "assay_type": "cell-based",
  "details": "4 days incubation; for % Differentiated cells: NBT/TPA",
  "procedure": "HL-60 Differentiation Assay:\nThe HL-60 tumor cell line was originally derived from a patient with promyelocytic leukemia. The cells are maintained in suspension and diluted to 200,000 cells/ml in 5 ml of suspension media. Compounds were tested at four concentrations in duplicate flasks. Control flasks were supplemented with vehicle alone at the highest concentration such as 0.1% ethanol. Flasks are incubated upright for 4 days in 5% CO2 at 37°C. On day 4, a 1 ml aliquot of cells was centrifuged, the media removed and the cells resuspended in a 0.2 ml of solution of nitroblue tetrazolium/phorbol 12 myristate 13-acetate (NBT/TPA). The cells are suspended and incubated at 37°C for 30 min. prior to transferring to ice. An aliquot is removed and a total of 200 cells is counted using a hemocytometer. Cells without pigmented granules are judged to be undifferentiated while those containing blue black formazan (indicating conversion of NBT) granules were scored as differentiated. Results are expressed as percent differentiated cells by calculating the ratio of the number of dark cells per total number of cells counted.",
  "data": [
    {"smiles": "CC(CC#CC(O)(C(F)(F)F)C(F)(F)F)C1=CCC2C(=CC=C3CC(O)CC(O)C3)CCCC12C", "note": "(stereo not shown) [Compound D, 1,25-dihydroxy-16-ene-23-yne-26,27-hexafluoro-19-nor-cholecalciferol]", "values": [
      {"measurement": "EC50", "setting": "Homo sapiens, 96 h, HL-60 differentiation, read-out: ED50 (the source's name)", "result": 0.8, "unit": "nM"},
      {"measurement": "% Differentiated cells", "setting": "concentration 10^-8 (unit not given)", "result": 89.5, "unit": "%"},
      {"measurement": "% Differentiated cells", "setting": "concentration 10^-9 (unit not given)", "result": 56.5, "unit": "%"},
      {"measurement": "% Differentiated cells", "setting": "concentration 10^-10 (unit not given)", "result": 1.5, "unit": "%"}
    ]}
  ]
}
